The subject of one test is M-07e cells. Put plainly: SCF-dependent M-07e cell proliferation assay. The note with it: read-out: M-07e IC50. Type of test: cell-based, human. On the procedure:
SCF-dependent cell proliferation assay was developed to measure the inhibitory potency of the compounds in M-07e cells, which express wild-type human KIT protein. The assay was performed in 96-well plates and the IC50 of each KIT inhibitor was determined by CellTiter Glo Assay reagent and Victor X5 Multilabel Counter (Perkin Elmer).
M-07e cells were purchased from AcceGen Biotechnology. Cells were maintained with M-07e Growth medium: RPMI-1640 containing 20% FBS, 100 U/mL penicillin and 100 microgram/mL streptomycin, 10 ng/mL rhGM-CSF, 10 ng/mL rhSCF. M-07e cells were seeded at a density of 5000 cells/90 μL/well in 96-well plates. Test compounds were dissolved in 100% DMSO to make 20 mM stock solution and serially diluted 1:3 with 100% DMSO to make an 11-point dilution series with concen-trations from […] to 0.024 μM. The serially diluted compounds were then each diluted 1:50 with culture medium to obtain assay compound solutions containing 2% DMSO. Ten μL of assay compound solutions were added to the 90 μL of culture cell suspension in the 96-well plate, with a final DMSO concentration of 0.2%. The plates were then incubated in a 5% CO2 incubator at 37° C. for 3 days. To obtain Day Zero Controls for background calculation, cells were seeded at 5000 cells/100 μL in a new 96-well plate and processed on the same day. Both Day Zero controls and 3 day culture plates were then treated as follows. 100 μL of CellTiter Glo Assay reagent was added to each well and the plate was incubated at room temperature for 15 min on a shaker at 200-300 RPM. Then 100 μL of cell lysate samples were transferred to white wall 96-well plates and luminescence was measured by a plate reader. The luminescence of Day Zero Control was subtracted from the luminescence intensity of 3 day culture readings. The assay control for this experiment was cells treated with 0.2% DMSO in culture medium and wells with 100 μL of culture medium (0.2% DMSO without cells) were used as the blank for data analysis.
The IC50 value of each compound was determined by using % inhibition by nor-malizing inhibition in DMSO treated control wells to 0% using the following formula method: […]
Plot percent inhibition in proliferation of triplicates against the respective concen-trations of compound and fit the dose response curve using the sigmoidal dose response equation to generate the IC50 in GraphPad Prism 8 software.

The target of test [1] is recombinant human KIT tyrosine kinase protein (Homo sapiens (Human), UniProt P10721). As to the kind of experiment: KIT tyrosine kinase assay (ADP-Glo). Type of test: biochemical.
Chain of recombinant human KIT tyrosine kinase protein (P10721 546-976): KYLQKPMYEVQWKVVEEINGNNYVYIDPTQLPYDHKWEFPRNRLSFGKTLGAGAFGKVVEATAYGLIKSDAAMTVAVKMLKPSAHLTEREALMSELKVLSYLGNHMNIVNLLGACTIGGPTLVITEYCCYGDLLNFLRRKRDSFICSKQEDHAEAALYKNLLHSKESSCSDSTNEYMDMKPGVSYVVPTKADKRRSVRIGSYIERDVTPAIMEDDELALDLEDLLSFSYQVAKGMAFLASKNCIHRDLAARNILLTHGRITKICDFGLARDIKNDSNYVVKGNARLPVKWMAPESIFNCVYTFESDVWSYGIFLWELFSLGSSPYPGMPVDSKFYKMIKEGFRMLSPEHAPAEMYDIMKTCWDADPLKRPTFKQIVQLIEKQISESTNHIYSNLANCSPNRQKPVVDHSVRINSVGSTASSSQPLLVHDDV
Setting [2] is: SCF-dependent M-07e cell proliferation, 3 days, CellTiter Glo.
The mark [3] stands for this setting: Homo sapiens, M-07e, 72 h, SCF-dependent M-07e cell proliferation, 3 days, CellTiter Glo.

Counter-ions that a name gives are not always drawn. Like-named read-outs stand apart in the source and are kept apart here.

As to `CN(c1ccc(CNC(=O)c2ccc3c(c2)[nH]c(=O)n3C)cn1)C1CC(OC(F)F)C1` (single isomer, unassigned) [106 Isomer II, N-((6-((3-(Difluoromethoxy)cyclobutyl)(methyl)amino)pyridin-3-yl)methyl)-1-methyl-2-oxo-2,3-dihydro-1H-benzimidazole-5-carboxamide], the IC50 in the test on M-07e cells (setting [2]) is 89 nM; in test [1] (Table 99) it was 22 nM.

`CC(C1CC1)N(C)c1ccc(CNC(=O)c2ccc3c(c2)[nH]c(=O)n3C)cn1` (stereo not drawn) [Example 83]: the IC50 in the test on M-07e cells (Homo sapiens, M-07e, 72 h) was found to be 300 nM; in test [1] (Table 98), 41 nM.

With `CN(c1ccc(CNC(=O)c2ccc3c(c2)[nH]c(=O)n3C)cn1)C1CC2C(C1)C2(F)F` (stereo not drawn) [Example 108, N-((6-((6,6-Difluorobicyclo[3.1.0]hexan-3-yl)(methyl)amino)pyridin-3-yl)methyl)-1-met hyl-2-oxo-2,3-dihydro-1H-benzimidazole-5-carboxamide], the IC50 is 65 nM in the test on M-07e cells (setting [3]) and 22 nM in test [1] (Table 99).

Take `CC(NC(=O)c1ccc2c(c1)[nH]c(=O)n2C)c1ccc(N(C)C(C)C)nc1` (stereo not drawn) [Example 130]: the figures for the IC50 (in the test on M-07e cells (setting [3]); in test [1] (Table 99)) were 1860 nM and 222 nM, respectively.

Take `CN(c1ccc(CNC(=O)c2cc(Cl)c3[nH]c(=O)[nH]c3c2)cn1)[C@H]1C[C@@H](C(F)(F)F)C1` [compound 141]: the values for the IC50 (with M-07e cells (setting [2]); in test [1] (Table 99)) were 153 nM and 27 nM, respectively.

Take `CN(c1ccc(F)cc1)c1ccc(CNC(=O)c2ccc3c(c2)[nH]c(=O)n3C)cn1` [Compound 9, N-((6-((4-Fluorophenyl)(methyl)amino)pyridin-3-yl)methyl)-1-methyl-2-oxo-2,3-dihydro-1H-benzimidazole-5-carboxamide trifluoroacetate]: the results for the IC50 (with M-07e cells (setting [3]); in test [1] (Table 98)) were 610 nM and 34 nM, respectively.

In the case of `CN(c1ccc(CNC(=O)c2ccc3c(c2)[nH]c(=O)n3C)cn1)c1ccc(F)cc1F` [Example 62], the IC50 amounted to 290 nM with M-07e cells (Homo sapiens, M-07e, 72 h) and 170 nM in test [1] (Table 98).

As to `CN(c1ccc(CNC(=O)c2ccc3c(c2)[nH]c(=O)n3C)cn1)C1CCCC(O)C1` (stereo not drawn) [Example 104, N-((6-((3-Hydroxycyclohexyl)(methyl)amino)pyridin-3-yl)methyl)-1-methyl-2-oxo-2,3-d ihydro-1H-benzimidazole-5-carboxamide], the IC50 with M-07e cells (setting [3]) was found to be 7660 nM; in test [1] (Table 99), 51 nM.

In the case of `Cn1c(=O)[nH]c2cc(C(=O)NCc3cnc(N(C)[C@H]4C[C@@H](C(F)(F)F)C4)cn3)ccc21` [Example 95], the IC50 with M-07e cells (Homo sapiens, M-07e, 72 h) was 190 nM; in test [1] (Table 98), 24 nM.

Turning to `CN(c1ccc(CNC(=O)c2ccc3c(c2)[nH]c(=O)n3C)cn1)C1CC(F)(F)C1` [Example 65], the IC50 was 270 nM in the test with M-07e cells (Homo sapiens, M-07e, 72 h) and 35 nM in test [1] (Table 98).

For `CN(c1ccc(CNC(=O)c2cc(F)c3[nH]c(=O)[nH]c3c2)cn1)[C@H]1C[C@@H](C(F)(F)F)C1` [Example 142], the IC50 with M-07e cells (Homo sapiens, M-07e, 72 h) amounted to 278 nM; in test [1] (Table 99), 18 nM.

Regarding `Cn1c(=O)[nH]c2cc(C(=O)NCc3ccc(OC4CC(C(F)(F)F)C4)nc3)ccc21` (stereo not drawn) [Compound 103, 1-Methyl-2-oxo-N-((6-(3-(trifluoromethyl)cyclobutoxy)pyridin-3-yl)methyl)-2,3-dihyd ro-1H-benzimidazole-5-carboxamide], the IC50 is 819 nM in the test on M-07e cells (setting [3]) and 42 nM in test [1] (Table 99).

For the molecule `CN(c1ccc(CNC(=O)c2ccc3c(c2)[nH]c(=O)n3C)cn1)[C@H]1CCC(F)(F)C1` [Example 105, (S)—N-((6-((3,3-Difluorocyclopentyl)(methyl)amino)pyridin-3-yl)methyl)-1-methyl-2-o xo-2,3-dihydro-1H-benzimidazole-5-carboxamide], the IC50 in the test on M-07e cells (setting [3]) was 13 nM; in test [1] (Table 99), 21 nM.

Take `CN(CC1CCC(F)(F)CC1)c1ncc(CNC(=O)c2ccc3c(c2)[nH]c(=O)n3C)s1` [Example 92]: the IC50 in the test on M-07e cells (Homo sapiens, M-07e, 72 h) turned out to be 1900 nM; in test [1] (Table 98), 59 nM.

As for `CN(CC1CC(F)(F)C1)c1ccc(CNC(=O)c2ccc3c(c2)[nH]c(=O)n3C)cn1` [Example 68], the IC50 was 130 nM with M-07e cells (Homo sapiens, M-07e, 72 h) and 42 nM in test [1] (Table 98).

For `CN(c1ccc(CNC(=O)c2ccc3c(c2)[nH]c(=O)n3C)cn1)C1CC2(COC2)C1` [Example 121], the IC50 in the test with M-07e cells (Homo sapiens, M-07e, 72 h) amounted to 1350 nM; in test [1] (Table 99) it was 59 nM.

For the molecule `Cn1c(=O)[nH]c2cc(C(=O)NCc3ccc(N(C)[C@H]4C[C@@H](C(F)(F)F)C4)nc3)ccc21` [Compound 12, 1-Methyl-N-((6-(methyl(cis-3-(trifluoromethyl)cyclobutyl)amino)pyridin-3-yl)methyl)-2-oxo-2,3-dihydro-1H-benzimidazole-5-carboxamide], the results for the IC50 (in the test on M-07e cells (setting [3]); in test [1] (Table 98)) were 38 nM and 36 nM, respectively.

`CN(CC1CCOCC1)c1ccc(CNC(=O)c2ccc3c(c2)[nH]c(=O)n3C)cn1` [Example 72]: the IC50 was 800 nM with M-07e cells (Homo sapiens, M-07e, 72 h) and 84 nM in test [1] (Table 98).

For `CC(c1ccccc1)N(C)c1ccc(CNC(=O)c2ccc3c(c2)[nH]c(=O)n3C)cn1` (single isomer, unassigned) [82 Peak 2], the IC50 came out at 620 nM with M-07e cells (setting [2]) and 29 nM in test [1] (Table 98).

For the molecule `CN(c1ccc2c(c1)COC2)c1ccc(CNC(=O)c2ccc3c(c2)[nH]c(=O)n3C)cn1` [Example 119], the IC50 turned out to be 423 nM with M-07e cells (Homo sapiens, M-07e, 72 h) and 40 nM in test [1] (Table 99).

`CN(c1ccc(CNC(=O)c2ccc3c(c2)[nH]c(=O)n3C)cn1)C1CC(OC(F)(F)F)C1` (single isomer, unassigned) [107 Isomer II, 1-Methyl-N-((6-(methyl(3-(trifluoromethoxy)cyclobutyl)amino)pyridin-3-yl)methyl)-2-oxo-2,3-dihydro-1H-benzimidazole-5-carboxamide]: the IC50 in the test on M-07e cells (setting [2]) was 286 nM; in test [1] (Table 99), 28 nM.

For `CN(c1ccc(CNC(=O)c2ccc3c(c2)[nH]c(=O)n3C)cn1)c1ccccc1F` [Example 59], the IC50 came out at 190 nM in the test on M-07e cells (Homo sapiens, M-07e, 72 h) and 14 nM in test [1] (Table 98).

On to `Cn1c(=O)[nH]c2cc(C(=O)NCc3ccc(OC4CCOC(C)(C)C4)nc3)ccc21` (stereo not drawn) [Example 48], for which the IC50 worked out at 8900 nM in the test on M-07e cells (Homo sapiens, M-07e, 72 h) and 550 nM in test [1] (Table 98).

Turning to `Cn1c(=O)[nH]c2cc(C(=O)NCc3ccc(Oc4ccc(F)cc4F)nc3)ccc21` [Compound 4, N-((6-(2,4-Difluorophenoxy)pyridin-3-yl)methyl)-1-methyl-2-oxo-2,3-dihydro-1H-benzi midazole-5-carboxamide], the IC50 turned out to be 380 nM with M-07e cells (setting [3]) and 21 nM in test [1] (Table 98).

With `CC(NC(=O)c1ccc2c(c1)[nH]c(=O)n2C)c1ccc(N(C)C(C)C)nc1` (single isomer, unassigned) [130 Peak 1], the IC50 in the test on M-07e cells (setting [3]) was found to be 621 nM; in test [1] (Table 99), 79 nM.

For the molecule `[2H]C([2H])([2H])n1c(=O)[nH]c2cc(C(=O)NCc3ccc(N(C)[C@H]4C[C@@H](C(F)(F)F)C4)nc3)ccc21` (relative stereo) [Example 116, 1-(Trideuteromethyl)-N-((6-(methyl(cis-3-(trifluoromethyl)cyclobutyl)amino)pyridin-3-yl)methyl)-2-oxo-2,3-dihydro-1H-benzimidazole-5-carboxamide], the values for the IC50 (with M-07e cells (setting [3]); in test [1] (Table 99)) were 28 nM and 29 nM, respectively.

Take `CC(N(C)c1ccc(CNC(=O)c2ccc3c(c2)[nH]c(=O)n3C)cn1)C(F)(F)F` (stereo not drawn) [Example 86]: the IC50 with M-07e cells (Homo sapiens, M-07e, 72 h) came out at 120 nM; in test [1] (Table 98), 15 nM.

On to `Cn1c(=O)[nH]c2cc(C(=O)NCc3ccc(Oc4cccc(F)c4F)nc3)ccc21` [Example 36], for which the IC50 stood at 870 nM in the test on M-07e cells (Homo sapiens, M-07e, 72 h) and 50 nM in test [1] (Table 98).

In the case of `CN(c1cnc(CNC(=O)c2cc3[nH]c(=O)[nH]c3cc2F)cn1)C1CCC(F)(F)C1` (stereo not drawn) [Example 138], the IC50 with M-07e cells (Homo sapiens, M-07e, 72 h) stood at 4570 nM; in test [1] (Table 99), 35 nM.

Regarding `CN(CCC(F)(F)F)c1ccc(CNC(=O)c2ccc3c(c2)[nH]c(=O)n3C)cn1` [Example 67], the IC50 in the test with M-07e cells (Homo sapiens, M-07e, 72 h) came out at 220 nM; in test [1] (Table 98), 25 nM.

In the case of `CN(CC1CCC(F)(F)CC1)c1ccc(CNC(=O)c2ccc3c(c2)[nH]c(=O)n3C)cn1` [Example 70], the IC50 in the test with M-07e cells (Homo sapiens, M-07e, 72 h) was found to be 140 nM; in test [1] (Table 98), 61 nM.

With `Cn1c(=O)[nH]c2cc(C(=O)NCc3cnc4c(c3)CCN4c3c(F)cccc3F)ccc21` [Example 102], the IC50 is 270 nM with M-07e cells (Homo sapiens, M-07e, 72 h) and 55 nM in test [1] (Table 99).

For the molecule `CC(c1ccccc1)N(C)c1ccc(CNC(=O)c2ccc3c(c2)[nH]c(=O)n3C)cn1` (stereo not drawn) [Example 82], the IC50 in the test with M-07e cells (setting [3]) worked out at 730 nM; in test [1] (Table 98) it was 75 nM.

By IC50 is commonly meant the concentration needed to halve the response being measured.
